The test system of data set [1] is MDR cells. Particulars: in vitro and in vivo; Cancer Res., 41, 1967-1972 (1981); cited from earlier work.
The conditions of data set [2]: Kamei et al, J. Antibiotics vol XLIII No. 8, 1018-1020; cited from earlier work.
Data set [3] relates to AR 1.0 cells. Briefly: Drug accumulation assay (tritiated daunorubicin, AR 1.0 cells). It counts as cell-based, mouse. Particulars: Mus musculus, 1 h, daunorubicin accumulation, 37° C., DNR 2 μM. The protocol: (§1) The EMT6 mouse mammary carcinoma cell line and the MDR resistant subline AR 1.0 were cultured in RPMI 1640 medium containing 10% foetal calf serum and 2mM glutamine at 37° C. in 5% CO2. Cells were passaged between 1 in 200 and 1 in 2000 in the case of the parental cell line and between 1 in 20 and 1 in 200 in the case of the MDR resistant subline, after trypsinisation (0.25% trypsin, 0.2 gl^-1, EDTA).
1. Drug accumulation assay
AR 1.0 cells were seeded into 96 well opaque culture plates (Canberra Packard). The assay medium contained a mixture of tritiated Daunorubicin (DNR), a cytotoxic agent, and unlabelled DNR (0.25μ Ci/ml; 2 μM). Compounds of formula A were serially diluted in assay medium over a range of concentrations from 100 nM to 100 μM. The cells were incubated at 37° C. for 1 hr before washing and counting of cell associated radioactivity. Each assay included a titration of the known resistance modifying agent Verapamil as positive control. Results were expressed as % maximum accumulation where 100% accumulation is that observed in the presence of 100 μM Verapamil.

Data set [4] deals with AR 1.0 cells. Briefly: Potentiation of Doxorubicin toxicity (potentiation index, AR 1.0 cells). Particulars: doxorubicin 0.5 nM-50 μM, four days; for Potentiation Index: Conc Comp 3 μM; for Potentiation Index (at 5 μM): Conc Comp 5 μM. It counts as cell-based, mouse. The protocol:
as §1
2. Potentiation of Doxorubicin toxicity
Compounds of formula A were examined for their ability to potentiate the toxicity of doxorubicin in AR 1.0 cells. In initial proliferation assays compounds were titrated against a fixed concentration of doxorubicin (0.5-1 μM) which alone is non-toxic to AR 1.0 cells. Incubations with doxorubicin were over a four day period before quantitation of proliferation using the calorimetric sulphorhodamine B assay (Skehan et al; J. Natl. Cancer Inst. 82 pp 1107-1112 (1990)).
Cells were cultured for four days with concentrations of doxorubicin over the range of 0.5 nM-50 μM in the presence of Verapramil at its maximum subtoxic level determined from previous experiments. Proliferation was quantified as described by Skehan et al, loc cit. The IC50 (concentration required to reduce proliferation to 50% of the untreated controls) for doxorubicin alone and with the Verapamil were derived and used to calculate the potentiation index (PI): […]

Data set [5] deals with AR 1.0 cells. Briefly: Proliferation/toxicity assay, compound alone and with cytotoxic agent (sulphorhodamine B). It counts as cell-based, mouse.
Where [6] appears, read: Mus musculus, compound alone, read-out: COMPOUND TOXICITY (IC50 μM).
The mark [7] stands for this setting: cytotoxic agent (doxorubicin) 0.50 μg/ml, 5760 min, read-out: TOXICITY WITH CYTOTOXIC AGENT (IC 50 μM).

Structures are written as SMILES.

`COc1ccc(CCN(C)CCCC(C#N)(c2ccc(OC)c(OC)c2)C(C)C)cc1OC` (stereo not drawn) [Verapamil]: in data set [1], the “sensitisation of MDR cells to vinca alkaloids” value is “shown to sensitise MDR cells to vinca alkaloids in vitro and in vivo”.

For `O=c1[nH]/c(=C\c2ccccc2)c(=O)[nH]/c1=C\c1ccccc1` [B], the “potentiation of the cytotoxicity of vincristine” value in data set [2] is recorded as “have utility as potentiators of the cytotoxicity of vincristine”.

Take `Cn1c(=O)/c(=C/c2cn(C(=O)OC(C)(C)C)c3ccccc23)n(C)c(=O)/c1=C/c1cccs1` [Compound 1834, (3Z,6Z)-1,4-Dimethyl-3-(1-tert-butoxycarbonyl-3-indolyl)methylene-6-(2-thenylidene)-2,5-piperazinedione]: the IC50 in data set [3] came out at 5 µM; in data set [5] (setting [6]) it was 10 µM; in data set [5] (setting [7]), 0.8 µM. Further, the “Potentiation Index” value in data set [4] was 30.

Turning to `Cn1c(=O)/c(=C/c2cn(C(=O)OC(C)(C)C)c3ccccc23)n(C)c(=O)/c1=C/c1ccccc1` [Compound 1800, (3Z,6Z)-3-Benzylidene-1,4-dimethyl-6-(1-tert-butoxycarbonyl-3-indolyl)methylene-2,5-piperazinedione], the IC50 in data set [3] is 7 µM; in data set [5] (setting [6]), 10 µM; in data set [5] (cytotoxic agent (doxorubicin) 1.00 μg/ml, 5760 min, read-out: TOXICITY WITH CYTOTOXIC AGENT (IC 50 μM)) it was 0.8 µM. The “Potentiation Index (at 5 μM)” value in data set [4] is recorded as 40.

As for `Cn1c(=O)/c(=C/c2cn(CN3C(=O)c4ccccc4C3=O)c3ccccc23)n(C)c(=O)/c1=C/c1ccccc1` [Compound 1897], the figures for the IC50 in data set [3], in data set [5] (setting [6]) and in data set [5] (setting [7]) were 3 µM, 50 µM and 1.5 µM, respectively. Besides, the “Potentiation Index (at 5 μM)” value in data set [4] is recorded as 75.

In the case of `O=c1[nH]/c(=C\c2ccncc2)c(=O)n(Cc2ccccc2)/c1=C\c1ccccc1` [Compound 1839, (3Z,6Z)-1-Benzyl-6-benzylidene-3-(4-pyridyl)methylene-2,5-piperazinedione], the IC50 in data set [3] was determined as 20 µM; in data set [5] (compound alone, read-out: COMPOUND TOXICITY (IC50 μM)), 30 µM; in data set [5] (setting [7]), 1.5 µM. Besides, in data set [4], the “Potentiation Index” value is listed as 15.

These data come from patent US5861400A, “Pharmaceutical compounds” (Xenova Limited, priority 1994, dated 1999).
